# Measurements: ChEMBL document CHEMBL5321228, “Discovery of novel BTK PROTACs with improved metabolic stability via linker rigidification strategy” (Eur J Med Chem, 2023)
# Active and inactive are the calls of the source. No cut-off for these calls is given here.
# What was measured:
# [1] = target: T1, Protein cereblon/Tyrosine-protein kinase BTK (Homo sapiens, UniProt Q06187+Q96SW2); assay: PROTAC activity at CRBN/BTK in human JeKo-1 cells assessed as induction of BTK degradation incubated for 24 hrs by Western blotting analysis; assay type: cell-based
# Target sequence in this assay (Q06187 whole entry): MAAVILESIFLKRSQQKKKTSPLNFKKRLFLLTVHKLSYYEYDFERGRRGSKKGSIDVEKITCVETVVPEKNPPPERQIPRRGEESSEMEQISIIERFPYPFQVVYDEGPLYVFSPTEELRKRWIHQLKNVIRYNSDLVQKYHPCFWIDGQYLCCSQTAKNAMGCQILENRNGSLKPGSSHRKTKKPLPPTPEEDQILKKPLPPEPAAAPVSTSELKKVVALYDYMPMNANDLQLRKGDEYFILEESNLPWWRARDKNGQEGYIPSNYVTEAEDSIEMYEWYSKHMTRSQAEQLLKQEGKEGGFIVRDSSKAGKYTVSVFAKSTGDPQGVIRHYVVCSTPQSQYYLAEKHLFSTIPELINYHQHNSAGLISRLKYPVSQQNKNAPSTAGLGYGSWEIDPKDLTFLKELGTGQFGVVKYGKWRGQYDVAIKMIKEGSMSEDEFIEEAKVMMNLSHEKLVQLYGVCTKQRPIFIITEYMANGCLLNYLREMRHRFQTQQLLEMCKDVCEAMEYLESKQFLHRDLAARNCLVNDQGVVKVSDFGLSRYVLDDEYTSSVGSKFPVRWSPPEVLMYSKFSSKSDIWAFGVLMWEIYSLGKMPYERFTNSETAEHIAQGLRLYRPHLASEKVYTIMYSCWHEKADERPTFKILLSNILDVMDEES
# Target sequence in this assay (Q96SW2 whole entry): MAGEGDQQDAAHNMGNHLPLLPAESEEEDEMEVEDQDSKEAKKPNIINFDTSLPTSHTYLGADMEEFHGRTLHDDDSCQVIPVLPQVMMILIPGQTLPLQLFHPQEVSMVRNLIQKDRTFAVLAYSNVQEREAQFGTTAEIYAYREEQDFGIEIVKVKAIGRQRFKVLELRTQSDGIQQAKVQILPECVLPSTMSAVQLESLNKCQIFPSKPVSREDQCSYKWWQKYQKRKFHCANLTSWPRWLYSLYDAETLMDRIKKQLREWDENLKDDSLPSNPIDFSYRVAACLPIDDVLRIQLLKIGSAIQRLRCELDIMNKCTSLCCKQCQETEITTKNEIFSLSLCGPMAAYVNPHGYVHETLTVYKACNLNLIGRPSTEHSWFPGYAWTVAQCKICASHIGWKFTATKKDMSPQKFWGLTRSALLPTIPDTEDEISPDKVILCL
# [2] = target: T1, Protein cereblon/Tyrosine-protein kinase BTK; assay: PROTAC activity at CRBN/BTK in human JeKo-1 cells assessed as induction of BTK degradation at 100 nM incubated for 24 hrs by Western blotting analysis relative to control; assay type: cell-based
# Target sequence in this assay (Q06187 2-659 limits assumed): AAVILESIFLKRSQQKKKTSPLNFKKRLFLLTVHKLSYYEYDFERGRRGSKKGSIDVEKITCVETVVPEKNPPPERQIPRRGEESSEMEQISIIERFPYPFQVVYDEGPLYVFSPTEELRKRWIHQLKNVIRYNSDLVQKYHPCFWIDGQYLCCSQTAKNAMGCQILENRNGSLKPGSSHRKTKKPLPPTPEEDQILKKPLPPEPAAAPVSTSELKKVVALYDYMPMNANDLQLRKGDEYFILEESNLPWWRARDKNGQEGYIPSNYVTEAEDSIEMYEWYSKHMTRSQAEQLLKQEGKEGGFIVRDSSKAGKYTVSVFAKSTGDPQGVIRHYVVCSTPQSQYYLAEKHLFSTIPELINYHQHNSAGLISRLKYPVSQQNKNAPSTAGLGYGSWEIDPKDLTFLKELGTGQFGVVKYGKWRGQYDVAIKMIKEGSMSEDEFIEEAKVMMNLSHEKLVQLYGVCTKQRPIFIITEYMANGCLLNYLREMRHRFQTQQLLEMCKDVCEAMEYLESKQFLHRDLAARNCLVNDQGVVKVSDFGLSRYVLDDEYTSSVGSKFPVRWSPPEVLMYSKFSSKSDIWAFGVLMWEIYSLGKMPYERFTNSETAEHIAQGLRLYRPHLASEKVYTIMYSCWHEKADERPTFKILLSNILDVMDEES
# Target sequence in this assay (Q96SW2 whole entry partner): as the sequence (Q96SW2 whole entry) above
# [3] = target: T1, Protein cereblon/Tyrosine-protein kinase BTK; assay: PROTAC activity at CRBN/BTK in human JeKo-1 cells assessed as induction of BTK degradation at 1000 nM incubated for 24 hrs by Western blotting analysis relative to control; assay type: cell-based
# Target sequence in this assay (Q06187 2-659 limits assumed): as the sequence (Q06187 2-659 limits assumed) above
# Target sequence in this assay (Q96SW2 whole entry partner): as the sequence (Q96SW2 whole entry) above
# [4] = target: T1, Protein cereblon/Tyrosine-protein kinase BTK; assay: PROTAC activity at CRBN/BTK in human JeKo-1 cells assessed as induction of BTK degradation by measuring maximal efficacy at 1.6 to 1000 nM incubated for 24 hrs by Western blotting analysis relative to control; assay type: cell-based; conditions: dose 1.6-1000 nM
# Target sequence in this assay (Q06187 2-659 limits assumed): as the sequence (Q06187 2-659 limits assumed) above
# Target sequence in this assay (Q96SW2 whole entry partner): as the sequence (Q96SW2 whole entry) above
# [5] = Metabolic stability in mouse liver microsomes assessed as half life at […] measured upto 60 mins in presence of NADPH by HPLC-MS/MS analysis; assay type: ADME, Microsome
# [6] = target: T1, Protein cereblon/Tyrosine-protein kinase BTK; assay: PROTAC activity at CRBN/BTK in human JeKo-1 cells assessed as induction of BTK degradation pre-treated with N-((1S,4S)-4-((5-(2-chloro-4-phenoxybenzoyl)-7H-pyrrolo[2,3-d]pyrimidin-4-yl)amino)cyclohexyl)-2-(1-(2-(1-(6-fluoro-2-(1-methyl-2,6-dioxopiperidin-3-yl)-1-oxoisoindolin-5-yl)piperidin-4-yl)ethyl)piperidin-4-yl)acetamide for 2 hrs followed by compound treatment for 12 hrs by Western blotting analysis; assay type: cell-based
# Target sequence in this assay (Q06187 2-659 limits assumed): as the sequence (Q06187 2-659 limits assumed) above
# Target sequence in this assay (Q96SW2 whole entry partner): as the sequence (Q96SW2 whole entry) above
# [7] = target: T1, Protein cereblon/Tyrosine-protein kinase BTK; assay: PROTAC activity at CRBN/BTK in human JeKo-1 cells assessed as induction of BTK degradation pre-treated with MG-132 for 2 hrs followed by compound treatment for 12 hrs by Western blotting analysis; assay type: cell-based
# Target sequence in this assay (Q06187 2-659 limits assumed): as the sequence (Q06187 2-659 limits assumed) above
# Target sequence in this assay (Q96SW2 whole entry partner): as the sequence (Q96SW2 whole entry) above
# [8] = target: T1, Protein cereblon/Tyrosine-protein kinase BTK; assay: PROTAC activity at CRBN/BTK in human JeKo-1 cells assessed as effect on […] levels at 1.6 to 1000 nM incubated for 24 hrs by Western blotting analysis; assay type: cell-based; conditions: dose 1.6-1000 nM
# Target sequence in this assay (Q06187 2-659 limits assumed): as the sequence (Q06187 2-659 limits assumed) above
# Target sequence in this assay (Q96SW2 whole entry partner): as the sequence (Q96SW2 whole entry) above
# [9] = target: T1, Protein cereblon/Tyrosine-protein kinase BTK; assay: PROTAC activity at CRBN/BTK in human JeKo-1 cells assessed as effect on GSPT1 levels at 1.6 to 1000 nM incubated for 24 hrs by Western blotting analysis; assay type: cell-based; conditions: dose 1.6-1000 nM
# OCI-Ly10 = assay: Antiproliferative activity against human OCILY10 cells assessed as inhibition of cell growth measured after 3 days by CCK-8 assay; assay type: functional, cell-based; conditions: OCI-Ly10, 72 h
# TMD8 = assay: Antiproliferative activity against human TMD8 cells assessed as inhibition of cell growth measured after 3 days by CCK-8 assay; assay type: functional, cell-based; conditions: TMD8, 72 h
# JeKo-1 = assay: Antiproliferative activity against human JeKo-1 cells assessed as inhibition of cell growth measured after 3 days by CCK-8 assay; assay type: functional, cell-based; conditions: JeKo-1, 72 h
# BaF3 = assay: Antiproliferative activity against mouse BaF3 cells expressing BTK C481S mutant assessed as inhibition of cell growth measured after 3 days by CCK-8 assay; assay type: functional, cell-based; conditions: BaF3, 72 h
# [10] = Drug concentration in BALB/c mouse plasma at 2 mg/kg, iv measured after 4 hrs by LC-MS/MS analysis; assay type: ADME, organism-based
# [11] = target: T1, Protein cereblon/Tyrosine-protein kinase BTK; assay: PROTAC activity at CRBN/BTK in human JeKo-1 cells assessed as induction of BTK degradation by measuring maximal efficacy at 1.6 to 5000 nM incubated for 24 hrs by Western blotting analysis relative to control; assay type: cell-based; conditions: dose 1.6-5000 nM
Compound,DC50 [1] [µM],Activity [2] [%],Activity [3] [%],further results
O=C1CCC(N2Cc3cc(N4CCC(CCN5CCC(CC(=O)N[C@H]6CC[C@@H](Nc7ncnc8[nH]cc(C(=O)c9ccc(Oc%10ccccc%10)cc9Cl)c78)CC6)CC5)CC4)c(F)cc3C2=O)C(=O)N1 (some centres undefined),0.007,91,89,Emax [4]: 96.5%; half-life [5]: > 145 min; Activity [6]: inactive; Activity [7]: inactive; Activity [8]: inactive; Activity [9]: inactive; IC50 (OCI-Ly10): 0.0023 µM; IC50 (TMD8): 0.0045 µM; IC50 (JeKo-1): 0.0381 µM; IC50 (BaF3): 0.086 µM; concentration at 4 h [10]: > 10 nM
C=CC(=O)N1CCC[C@@H](n2nc(-c3ccc(Oc4ccccc4)cc3)c3c(N)ncnc32)C1 [IBRUTINIB],,,,IC50 (OCI-Ly10): 0.0045 µM; IC50 (TMD8): 0.0047 µM; IC50 (JeKo-1): 0.0798 µM; IC50 (BaF3): 1.55 µM
O=C1CCC(N2Cc3ccc(N4CCC(CCN5CCC(CC(=O)N[C@H]6CC[C@@H](Nc7ncnc8[nH]cc(C(=O)c9ccc(Oc%10ccccc%10)cc9Cl)c78)CC6)CC5)CC4)cc3C2=O)C(=O)N1 (some centres undefined),0.0074,83,87,Emax [4]: 90.6%; half-life [5]: > 145 min; IC50 (OCI-Ly10): 0.0059 µM; IC50 (TMD8): 0.0093 µM; IC50 (JeKo-1): 0.0344 µM
O=C(c1ccc(Oc2ccccc2)cc1Cl)c1c[nH]c2ncnc(N[C@@H]3CC[C@@H](CO)OC3)c12 [NEMTABRUTINIB],,,,IC50 (JeKo-1): 0.0661 µM; IC50 (BaF3): 0.548 µM
O=C1CCC(N2C(=O)c3ccc(N4CCC(CCN5CCC(CN[C@H]6CC[C@@H](Nc7ncnc8[nH]cc(C(=O)c9ccc(Oc%10ccccc%10)cc9Cl)c78)CC6)CC5)CC4)cc3C2=O)C(=O)N1 (some centres undefined),0.1,76,69.5,
O=C1CCC(N2C(=O)c3ccc(N4CCC(N5CCC(N[C@H]6CC[C@@H](Nc7ncnc8[nH]cc(C(=O)c9ccc(Oc%10ccccc%10)cc9Cl)c78)CC6)CC5)CC4)cc3C2=O)C(=O)N1 (some centres undefined),,15,18.5,
O=C1CCC(N2Cc3cc(N4CCC(CCN5CCC(CC(=O)N[C@H]6CC[C@@H](Nc7ncnc8[nH]cc(C(=O)c9ccc(Oc%10ccccc%10)cc9Cl)c78)CC6)CC5)CC4)ccc3C2=O)C(=O)N1 (some centres undefined),0.0101,80.4,86,Emax [4]: 90.1%; half-life [5]: 52 min; IC50 (OCI-Ly10): 0.0157 µM; IC50 (TMD8): 0.0155 µM
O=C1CCC(N2C(=O)c3ccc(N4CCC(CN5CCC(CN[C@H]6CC[C@@H](Nc7ncnc8[nH]cc(C(=O)c9ccc(Oc%10ccccc%10)cc9Cl)c78)CC6)CC5)CC4)cc3C2=O)C(=O)N1 (some centres undefined),,48,63.5,
O=C1CCC(N2C(=O)c3ccc(N4CCC(CN5CCCC(N[C@H]6CC[C@@H](Nc7ncnc8[nH]cc(C(=O)c9ccc(Oc%10ccccc%10)cc9Cl)c78)CC6)C5)CC4)cc3C2=O)C(=O)N1 (some centres undefined),,31.5,74,
O=C1CCC(N2C(=O)c3ccc(N4CCC(CN5CCC(CCN[C@H]6CC[C@@H](Nc7ncnc8[nH]cc(C(=O)c9ccc(Oc%10ccccc%10)cc9Cl)c78)CC6)CC5)CC4)cc3C2=O)C(=O)N1 (some centres undefined),,57,77,
O=C1CCC(N2C(=O)c3ccc(N4CCC(CN5CCC(N[C@H]6CC[C@@H](Nc7ncnc8[nH]cc(C(=O)c9ccc(Oc%10ccccc%10)cc9Cl)c78)CC6)CC5)CC4)cc3C2=O)C(=O)N1 (some centres undefined),,51.5,62,
O=C1CCC(N2C(=O)c3cc(F)c(N4CCC(CCN5CCC(CC(=O)N[C@H]6CC[C@@H](Nc7ncnc8[nH]cc(C(=O)c9ccc(Oc%10ccccc%10)cc9Cl)c78)CC6)CC5)CC4)cc3C2=O)C(=O)N1 (some centres undefined),0.0093,87,88.5,half-life [5]: 55.4 min; Emax [11]: 93.6%; IC50 (OCI-Ly10): 0.0282 µM; IC50 (TMD8): 0.047 µM; IC50 (JeKo-1): 0.117 µM
O=C1CCC(N2C(=O)c3ccc(N4CCC(N5CCC(CN[C@H]6CC[C@@H](Nc7ncnc8[nH]cc(C(=O)c9ccc(Oc%10ccccc%10)cc9Cl)c78)CC6)CC5)CC4)cc3C2=O)C(=O)N1 (some centres undefined),,39,42.5,

# More lines, main results first:
DC50 [1] [µM],Activity [2] [%],Activity [3] [%],Compound,further results
,29.5,38.5,O=C1CCC(N2C(=O)c3ccc(N4CCC(CN5CC(CN[C@H]6CC[C@@H](Nc7ncnc8[nH]cc(C(=O)c9ccc(Oc%10ccccc%10)cc9Cl)c78)CC6)C5)CC4)cc3C2=O)C(=O)N1 (some centres undefined),
,3,5,O=C1CCC(N2C(=O)c3ccc(N4CCC(N[C@H]5CC[C@@H](Nc6ncnc7[nH]cc(C(=O)c8ccc(Oc9ccccc9)cc8Cl)c67)CC5)CC4)cc3C2=O)C(=O)N1 (some centres undefined),
0.024,79.5,73.5,O=C1CCC(N2C(=O)c3ccc(N4CCC(CN5CCC(CC(=O)N[C@H]6CC[C@@H](Nc7ncnc8[nH]cc(C(=O)c9ccc(Oc%10ccccc%10)cc9Cl)c78)CC6)CC5)CC4)cc3C2=O)C(=O)N1 (some centres undefined),
,61,50,O=C1CCC(N2C(=O)c3ccc(N4CCC(CN5CCC(C(=O)N[C@H]6CC[C@@H](Nc7ncnc8[nH]cc(C(=O)c9ccc(Oc%10ccccc%10)cc9Cl)c78)CC6)CC5)CC4)cc3C2=O)C(=O)N1 (some centres undefined),
,32,24,O=C1CCC(N2C(=O)c3ccc(N4CCC(CN5CC(N[C@H]6CC[C@@H](Nc7ncnc8[nH]cc(C(=O)c9ccc(Oc%10ccccc%10)cc9Cl)c78)CC6)C5)CC4)cc3C2=O)C(=O)N1 (some centres undefined),
,28.5,26,O=C1CCC(N2C(=O)c3ccc(N4CCC(F)(CN5CCC(CC(=O)N[C@H]6CC[C@@H](Nc7ncnc8[nH]cc(C(=O)c9ccc(Oc%10ccccc%10)cc9Cl)c78)CC6)CC5)CC4)cc3C2=O)C(=O)N1 (some centres undefined),
0.02,86.5,88.6,O=C1CCC(N2C(=O)c3cccc(NCCOCCOCCOCCOCCOCCNC(=O)N[C@H]4CC[C@@H](Nc5ncnc6[nH]cc(C(=O)c7ccc(Oc8ccccc8)cc7Cl)c56)CC4)c3C2=O)C(=O)N1 (some centres undefined),Emax [4]: 93.8%; half-life [5]: 1.3 min; IC50 (BaF3): 1.76 µM
,45.5,57,O=C1CCC(N2C(=O)c3ccc(N4CCC(CC(=O)N5CCC(CN[C@H]6CC[C@@H](Nc7ncnc8[nH]cc(C(=O)c9ccc(Oc%10ccccc%10)cc9Cl)c78)CC6)CC5)CC4)cc3C2=O)C(=O)N1 (some centres undefined),
,30,21,O=C1CCC(N2C(=O)c3ccc(N4CC(N5CCC(CN[C@H]6CC[C@@H](Nc7ncnc8[nH]cc(C(=O)c9ccc(Oc%10ccccc%10)cc9Cl)c78)CC6)CC5)C4)cc3C2=O)C(=O)N1 (some centres undefined),
0.0088,85,82.5,O=C1CCC(N2C(=O)c3ccc(N4CCC(CCN5CCC(CC(=O)N[C@H]6CC[C@@H](Nc7ncnc8[nH]cc(C(=O)c9ccc(Oc%10ccccc%10)cc9Cl)c78)CC6)CC5)CC4)cc3C2=O)C(=O)N1 (some centres undefined),half-life [5]: 86 min; Emax [11]: 94.1%; IC50 (OCI-Ly10): 0.0154 µM; IC50 (TMD8): 0.0821 µM; IC50 (JeKo-1): 0.0595 µM
